# Numbered stars: 1 amine (or outer) side, 2 acyl side, 3 side chain; on linkers, the order of the positions; unused ones are H or OH. Bridge positions count the residues as written; N and C are the ends. Square brackets hold non-standard residues; d marks the D form. Peptide text beside a SMILES is read from it. TATA = O=C(CC[*:1])N1CN(C(=O)CC[*:2])CN(C(=O)CC[*:3])C1
# Biological target: T1, Fc-tagged human NKp46 (Homo sapiens, UniProt O76036)
# T1 construct: purchased ACROBiosystems NC1-H5257
# Test: NKp46 SPR assay (Method 1 and/or Method 2)
# Format: binding
# Settings: SPR Method 1 and/or Method 2, Table 3B
# Procedure: SPR experiments were performed to determine ka (M^−1s^−1), kd (s^−1), KD (nM) values (where measurable) of various bicyclic peptides to immobilised NKp46.
# For analysis of peptide binding to NKp46, a Biacore 3000 instrument was used with a Cytiva Streptavidin chip. Capture of the protein (recombinant human NKp46-Fc fusion biotinylated via Avi-tag) was carried out at 25° C. with HBS-N (10 mM HEPES, 0.15 M NaCl, pH 7.4) as the running buffer and biotinylated NKp46 was captured to a level of 400-800 RU using a dilution of protein to 0.2 μM in buffer. Buffer was then changed to PBS/0.05% Tween 20 and a dilution series of the peptides was prepared in this buffer with a final DMSO concentration of 0.5% with a top peptide concentration of 100 nM-5000 nM and 6 further 2 or 3-fold dilutions. The SPR analysis was run at 25° C. and a flow rate of 50 μl/min with 60 seconds association and 200-400 seconds dissociation time. Data were corrected for DMSO excluded volume effects. All data were double-referenced for blank injections and reference surface using standard processing procedures and data processing and kinetic fitting were performed using Scrubber software, version 2.0c (BioLogic Software). Data were fitted using simple 1:1 binding model allowing for mass transport effects where appropriate.
# Peptides were tested against Fc-tagged human NKp46 (ACROBiosystems, cat no. NC1-H5257).
# For analysis of peptide binding, a Biacore 8k+ instrument was used with a CM5 chip (Cytiva). All experiments were carried out at 25° C. Anti-human IgG (Fc) antibody (Cytiva) was immobilized on all flow cells by standard amine coupling chemistry. The running buffer was HBS-N(Cytiva, 10 mM HEPES, 0.15 M NaCl, pH 7.4) and the flow rate was 10 μL/min. The carboxymethyl dextran surface was activated with a 1:1 ratio of 0.4 M 1-ethyl-3-(3-dimethylaminopropyl) carbodiimide hydrochloride (EDC)/0.1 M N-hydroxy succinimide (NHS) (Cytiva) for 420s. […] Residual activated groups were blocked with a 420 s injection of 1 M ethanolamine (pH 8.5). The final surface density was 3000-5000 RU. Fc-tagged human NKp46 was diluted to 0.1 μM in HBS-N and was captured on flow cell 2 only of the sensor chip at a flow rate of 10 μL/min to 500-1000 RU. The buffer was then changed to PBS-P+(Cytiva) supplemented with 2% DMSO. […] The flow rate was 50 μL/min with 60 s association and 400 s dissociation. Data were corrected for DMSO volume exclusion effects. All data were double-referenced against blank injections and reference surface response using standard processing procedures. Data processing and kinetic fitting was performed using Biacore Insight Evaluation Software with Extended Screening and Characterization Extension (Cytiva). Data were fitted using steady state affinity 1:1 binding model to determine KD. Data were fitted using kinetic 1:1 binding model to determine kinetic constants where appropriate.
# T1 sequence (O76036 22-304): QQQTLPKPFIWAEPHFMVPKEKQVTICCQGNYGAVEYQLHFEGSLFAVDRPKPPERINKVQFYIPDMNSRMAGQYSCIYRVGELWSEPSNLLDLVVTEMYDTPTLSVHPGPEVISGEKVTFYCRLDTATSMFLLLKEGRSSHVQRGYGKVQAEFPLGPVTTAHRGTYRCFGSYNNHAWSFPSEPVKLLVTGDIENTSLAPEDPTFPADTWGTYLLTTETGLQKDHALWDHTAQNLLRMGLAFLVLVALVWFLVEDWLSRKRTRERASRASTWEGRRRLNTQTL
row,SMILES,Kd [µM]
1,"CC(C)C[C@@H]1NC(=O)[C@H](CC(=O)O)NC(=O)[C@@H](NC(=O)[C@H](C)N)CSCCC(=O)N2CN3CN(C2)C(=O)CCSC[C@H](NC(=O)[C@H](CC(N)=O)NC(=O)[C@H](Cc2c[nH]cn2)NC(=O)[C@H]([C@@H](C)O)NC(=O)[C@H]([C@@H](C)O)NC1=O)C(=O)N[C@@H](CCC(N)=O)C(=O)N[C@@H](Cc1c[nH]c2ccccc12)C(=O)NCC(=O)N[C@@H](C)C(=O)N[C@H](C(=O)N[C@@H](C)C(N)=O)CSCCC3=O [BCY18272, A-(SEQ ID NO: 120)-A] (H-ACDLTTHNCQWGACA-NH2; linker 2-9-14 via TATA)",3.19
2,"CC[C@H](C)[C@@H]1NC(=O)CNC(=O)[C@H](Cc2c[nH]c3ccccc23)NC(=O)[C@H](C(C)C)NC(=O)[C@@H]2CSCCC(=O)N3CN(CN(C3)C(=O)CCSC[C@@H](C(=O)N[C@@H](C)C(N)=O)NC1=O)C(=O)CCSC[C@H](NC(=O)[C@H](C)N)C(=O)N[C@@H](CC(=O)O)C(=O)N[C@@H](CC(C)C)C(=O)N[C@@H]([C@@H](C)O)C(=O)N[C@@H]([C@@H](C)O)C(=O)N[C@@H](Cc1c[nH]cn1)C(=O)N[C@@H](CC(N)=O)C(=O)N2 [BCY18285, A-(SEQ ID NO: 128)-A] (H-ACDLTTHNCVWGICA-NH2; linker 2-9-14 via TATA; N-terminus and C-terminus assumed)",3.76
3,"CSCC[C@@H]1NC(=O)[C@@H]2CSCCC(=O)N3CN(CN(C3)C(=O)CCSC[C@H](N)C(=O)N[C@@H](CC(N)=O)C(=O)N[C@@H](CC(C)C)C(=O)N[C@@H](CCC(N)=O)C(=O)N[C@@H](C)C(=O)N3CCC[C@H]3C(=O)N2)C(=O)CCSC[C@@H](C(N)=O)NC(=O)[C@H](C(C)C)NC(=O)[C@H](CCCCN)NC(=O)CNC(=O)[C@H]([C@@H](C)O)NC(=O)[C@H](CC(C)C)NC1=O [BCY18295, (SEQ ID NO: 4)] (H-CNLQAPCMLTGKVC-NH2; linker 1-7-14 via TATA; C-terminus assumed)",6.41
4,"CSCC[C@@H]1NC(=O)[C@@H]2CSCCC(=O)N3CN(CN(C3)C(=O)CCSC[C@@H](C(=O)N[C@@H](C)C(N)=O)NC(=O)[C@H](C(C)C)NC(=O)[C@H](CCCCN)NC(=O)CNC(=O)[C@H]([C@@H](C)O)NC(=O)[C@H](C)NC1=O)C(=O)CCSC[C@H](NC(=O)[C@H](C)N)C(=O)N[C@@H](CC(N)=O)C(=O)N[C@@H](CC(C)C)C(=O)N[C@@H](CCC(N)=O)C(=O)N[C@@H](C)C(=O)N1CCC[C@H]1C(=O)N2 [BCY18301, A-(SEQ ID NO: 65)-A] (H-ACNLQAPCMATGKVCA-NH2; linker 2-8-15 via TATA; C-terminus assumed)",4.03
5,"CSCC[C@@H]1NC(=O)[C@@H]2CSCCC(=O)N3CN(CN(C3)C(=O)CCSC[C@@H](C(=O)N[C@@H](C)C(N)=O)NC(=O)[C@H](C(C)C)NC(=O)[C@H](CCCCN)NC(=O)CNC(=O)[C@H](C)NC(=O)[C@H](CC(C)C)NC1=O)C(=O)CCSC[C@H](NC(=O)[C@H](C)N)C(=O)N[C@@H](CC(N)=O)C(=O)N[C@@H](CC(C)C)C(=O)N[C@@H](CCC(N)=O)C(=O)N[C@@H](C)C(=O)N1CCC[C@H]1C(=O)N2 [BCY18302, A-(SEQ ID NO: 66)-A] (H-ACNLQAPCMLAGKVCA-NH2; linker 2-8-15 via TATA; N-terminus assumed)",5.38

# Compounds with a lower Kd, results first:
row,Kd [µM],SMILES
1,0.354,"CC[C@H](C)[C@@H]1NC(=O)CNC(=O)[C@H](Cc2cn(C)c3ccccc23)NC(=O)[C@H](CCC(N)=O)NC(=O)[C@@H]2CSCCC(=O)N3CN(CN(C3)C(=O)CCSC[C@@H](C(=O)N[C@@H](C)C(N)=O)NC1=O)C(=O)CCSC[C@H](NC(=O)[C@H](C)N)C(=O)N[C@@H](CC(=O)O)C(=O)N[C@@H](CC(C)C)C(=O)N[C@@H]([C@@H](C)O)C(=O)N[C@@H]([C@@H](C)O)C(=O)N[C@@H](Cc1c[nH]cn1)C(=O)N[C@@H](CC(N)=O)C(=O)N2 [BCY18288, A-(SEQ ID NO: 131)-A]"
2,1.46,"CC[C@H](C)[C@@H]1NC(=O)[C@@H](C)NC(=O)[C@H](Cc2c[nH]c3ccccc23)NC(=O)[C@H](CCC(N)=O)NC(=O)[C@@H]2CSCCC(=O)N3CN(CN(C3)C(=O)CCSC[C@@H](C(=O)N[C@@H](C)C(N)=O)NC1=O)C(=O)CCSC[C@H](NC(=O)[C@H](C)N)C(=O)N[C@@H](CC(=O)O)C(=O)N[C@@H](CC(C)C)C(=O)N[C@@H]([C@@H](C)O)C(=O)N[C@@H]([C@@H](C)O)C(=O)N[C@@H](Cc1c[nH]cn1)C(=O)N[C@@H](CC(N)=O)C(=O)N2 [BCY18292, A-(SEQ ID NO: 135)-A] (H-ACDLTTHNCQW[dA]ICA-NH2; linker 2-9-14 via TATA; N-terminus and C-terminus assumed)"
3,1.8,"CSCC[C@@H]1NC(=O)[C@@H]2CSCCC(=O)N3CN(CN(C3)C(=O)CCSC[C@@H](C(=O)N[C@@H](C)C(N)=O)NC(=O)[C@H](C(C)C)NC(=O)[C@H](CCCCN)NC(=O)CNC(=O)[C@H]([C@@H](C)O)NC(=O)[C@H](CC(C)C)NC1=O)C(=O)CCSC[C@H](NC(=O)[C@H](C)N)C(=O)N[C@@H](CC(N)=O)C(=O)N[C@@H](CC(C)C)C(=O)N[C@@H](CCC(N)=O)C(=O)N[C@@H](C)C(=O)N[C@@H](C)C(=O)N2 [BCY18299, A-(SEQ ID NO: 64)-A] (H-ACNLQAACMLTGKVCA-NH2; linker 2-8-15 via TATA; N-terminus assumed)"
4,2.75,"CSCC[C@@H]1NC(=O)[C@@H]2CSCCC(=O)N3CN(CN(C3)C(=O)CCSC[C@@H](C(=O)N[C@@H](C)C(N)=O)NC(=O)[C@H](C(C)C)NC(=O)[C@H](CCCCN)NC(=O)[C@H](C)NC(=O)[C@H]([C@@H](C)O)NC(=O)[C@H](CC(C)C)NC1=O)C(=O)CCSC[C@H](NC(=O)[C@H](C)N)C(=O)N[C@@H](CC(N)=O)C(=O)N[C@@H](CC(C)C)C(=O)N[C@@H](CCC(N)=O)C(=O)N[C@@H](C)C(=O)N1CCC[C@H]1C(=O)N2 [BCY18303, A-(SEQ ID NO: 67)-A] (H-ACNLQAPCMLTAKVCA-NH2; linker 2-8-15 via TATA)"
5,1.53,"CSCC[C@@H]1NC(=O)[C@@H]2CSCCC(=O)N3CN(CN(C3)C(=O)CCSC[C@@H](C(=O)N[C@@H](C)C(N)=O)NC(=O)[C@H](C(C)C)NC(=O)[C@H](C)NC(=O)CNC(=O)[C@H]([C@@H](C)O)NC(=O)[C@H](CC(C)C)NC1=O)C(=O)CCSC[C@H](NC(=O)[C@H](C)N)C(=O)N[C@@H](CC(N)=O)C(=O)N[C@@H](CC(C)C)C(=O)N[C@@H](CCC(N)=O)C(=O)N[C@@H](C)C(=O)N1CCC[C@H]1C(=O)N2 [BCY18304, A-(SEQ ID NO: 68)-A] (H-ACNLQAPCMLTGAVCA-NH2; linker 2-8-15 via TATA; N-terminus assumed)"
6,2.75,"CC(C)C[C@@H]1NC(=O)[C@H](CC(N)=O)NC(=O)[C@@H](NC(=O)[C@H](C)N)CSCCC(=O)N2CN3CN(C2)C(=O)CCSC[C@H](NC(=O)[C@@H]2CCCN2C(=O)[C@H](C)NC(=O)[C@H](CCC(N)=O)NC1=O)C(=O)N[C@@H](CC(C)C)C(=O)N[C@@H](CC(C)C)C(=O)N[C@@H]([C@@H](C)O)C(=O)NCC(=O)N[C@@H](CCCCN)C(=O)N[C@@H](C(C)C)C(=O)N[C@H](C(=O)N[C@@H](C)C(N)=O)CSCCC3=O [BCY18313, A-(SEQ ID NO: 75)-A] (H-ACNLQAPCLLTGKVCA-NH2; linker 2-8-15 via TATA; N-terminus assumed)"

# Reference: patent US20240108738A1, “BICYCLIC PEPTIDE LIGANDS SPECIFIC FOR NK CELLS” (Bicycle Tx Limited, priority 2021, published 2024)
